ChEMBL document CHEMBL3352203, “Bioactive sulfur-containing sulochrin dimers and other metabolites from an Alternaria sp. isolate from a Hawaiian soil sample” (J Nat Prod, 2014)
In brackets after ≈: the same amount, converted by molar mass.

What was measured:
Staphylococcus aureus = experiment: Antibacterial activity against Staphylococcus aureus ATCC 700787 after 17 hrs; format: functional; settings: ATCC 700787, 17 h
[1] = Cytotoxicity against human MIAPaCa2 cells assessed as after 48 hrs by MTT assay; format: functional, cell-based; settings: MIA PaCa-2, 48 h

MIC (Staphylococcus aureus)	Compound	IC50 [1]
4.9 µM (≈ 3.25 µg/mL)	COC(=O)c1c(Sc2c(O)cc3oc4cc(C)cc(O)c4c(=O)c3c2C(=O)OC)c(O)cc(OC)c1C(=O)c1c(O)cc(C)cc1O	30.3 µM
4.1 µM (≈ 2.85 µg/mL)	COC(=O)c1c(Sc2c(O)cc(OC)c(C(=O)c3c(O)cc(C)cc3O)c2C(=O)OC)c(O)cc(OC)c1C(=O)c1c(O)cc(C)cc1O	50.8 µM
3.2 µM (≈ 2.02 µg/mL)	COC(=O)c1c(Sc2c(O)cc3oc4cc(C)cc(O)c4c(=O)c3c2C(=O)OC)c(O)cc2oc3cc(C)cc(O)c3c(=O)c12	29.3 µM
5 µM (≈ 1.62 µg/mL)	O=C(N[C@H](CO)[C@H](O)c1ccc([N+](=O)[O-])cc1)C(Cl)Cl [CHLORAMPHENICOL]	–
